From ChEMBL document CHEMBL4765407, “Design, synthesis and high antitumor potential of new unsymmetrical bisacridine derivatives towards human solid tumors, specifically pancreatic cancers and their unique ability to stabilize DNA G-quadruplexes” (Eur J Med Chem, 2020)

Tests used:
[1] = system: PANC-1; test: Cytotoxicity against human PANC-1 cells assessed as reduction in cell viability measured after 72 hrs by SRB assay; assay type: functional, cell-based; details: PANC-1, 72 h
[2] = system: W256; test: Antitumour activity against Walker 256 adenocarcinoma cells implanted in Wistar rat assessed as increase in animal survival rate by measuring T/C ratio at 10 mg/kg, ip qd for 3 days administered on day 3,4,5 after tumor cell transplantation; assay type: functional; details: time 3 day
[3] = system: HCT-116; test: Cytotoxicity against human HCT-116 cells assessed as reduction in cell viability measured after 72 hrs by SRB assay; assay type: functional, cell-based; details: HCT-116, 72 h
[4] = system: LNCaP; test: Cytotoxicity against human LNCaP cells assessed as reduction in cell viability measured after 72 hrs by SRB assay; assay type: functional, cell-based
[5] = system: DU-145; test: Cytotoxicity against human DU-145 cells assessed as reduction in cell viability measured after 72 hrs by SRB assay; assay type: functional, cell-based; details: DU-145, 72 h
[6] = system: NCI-H460; test: Cytotoxicity against human NCI-H460 cells assessed as reduction in cell viability measured after 72 hrs by SRB assay; assay type: functional, cell-based; details: NCI-H460, 72 h
[7] = system: HT-29; test: Cytotoxicity against human HT-29 cells assessed as reduction in cell viability measured after 72 hrs by SRB assay; assay type: functional, cell-based; details: HT-29, 72 h
[8] = system: Quadruplex DNA; test: Stabilization of 5'-FAM/3'-TAMRA labeled telomeric G4 quadruplex DNA F21T (unknown origin) assessed as change in melting temperature at 10 microM measured after 15 mins by FRET assay; assay type: nucleic-acid assay
[9] = system: UMUC3; test: Cytotoxicity against human UMUC3 cells assessed as reduction in cell viability measured after 72 hrs by SRB assay; assay type: functional, cell-based; details: UMUC3, 72 h
[10] = system: HCT-116; test: Antitumour activity against human HCT-116 cells xenografted in Crl:Nu-Foxnl nu mouse assessed as inhibition of tumour growth at total effective dose of 5 mg/kg, ip measured on day 16; assay type: functional; details: HCT-116, ip, 384 h, time 16 day, read-out: TGI
[11] = system: MDA-MB-231; test: Cytotoxicity against human MDA-MB-231 cells assessed as reduction in cell viability measured after 72 hrs by SRB assay; assay type: functional, cell-based; details: MDA-MB-231, 72 h
[12] = system: Quadruplex DNA; test: Stabilization of 5'-FAM/3'-TAMRA labeled K-Ras G4 quadruplex DNA (unknown origin) assessed as change in melting temperature at 10 microM measured after 15 mins by FRET assay; assay type: nucleic-acid assay
[13] = system: DU-145; test: Antitumour activity against human DU-145 cells xenografted in Crl:Nu-Foxnl nu mouse assessed as inhibition of tumour growth at total effective dose of 6 mg/kg, ip measured on day 35; assay type: functional; details: DU-145, ip, 840 h, time 35 day, read-out: TGI
[14] = system: PC-3; test: Cytotoxicity against human PC-3 cells assessed as reduction in cell viability measured after 72 hrs by SRB assay; assay type: functional, cell-based; details: PC-3, 72 h
[15] = system: MIA PaCa-2; test: Cytotoxicity against human MIA PaCa-2 cells assessed as reduction in cell viability measured after 72 hrs by SRB assay; assay type: functional, cell-based; details: MIA PaCa-2, 72 h
[16] = system: MIA PaCa-2; test: Antitumour activity against human MIA PaCa-2 cells xenografted in Crl:Nu-Foxnl nu mouse assessed as inhibition of tumour growth at total effective dose of 32 mg/kg, iv measured on day 26; assay type: functional; details: MIA PaCa-2, iv, 624 h, time 26 day, read-out: TGI
[17] = system: Quadruplex DNA; test: Stabilization of 5'-FAM/3'-TAMRA labeled c-Myc promoter G4 quadruplex DNA FPu18 (unknown origin) assessed as change in melting temperature at 10 microM measured after 15 mins by FRET assay; assay type: nucleic-acid assay
[18] = system: W256; test: Antitumour activity against Walker 256 adenocarcinoma cells implanted in Wistar rat assessed as increase in animal survival rate by measuring T/C ratio at 1 mg/kg, ip qd for 3 days administered on day 3,4,5 after tumor cell transplantation; assay type: functional; details: time 3 day
[19] = system: ASPC1; test: Cytotoxicity against human ASPC1 cells assessed as reduction in cell viability measured after 72 hrs by SRB assay; assay type: functional, cell-based; details: ASPC1, 72 h
[20] = system: MCF7; test: Cytotoxicity against human MCF7 cells assessed as reduction in cell viability measured after 72 hrs by SRB assay; assay type: functional, cell-based; details: MCF7, 72 h
[21] = system: DU-145; test: Antitumour activity against human DU-145 cells xenografted in Crl:Nu-Foxnl nu mouse assessed as inhibition of tumour growth at total effective dose of 24 mg/kg, ip measured on day 35; assay type: functional; details: DU-145, ip, 840 h, time 35 day, read-out: TGI
[22] = system: W256; test: Antitumour activity against Walker 256 adenocarcinoma cells implanted in Wistar rat assessed as increase in animal survival rate by measuring T/C ratio at 40 mg/kg, ip qd for 3 days administered on day 3,4,5 after tumor cell transplantation; assay type: functional; details: time 3 day
[23] = system: W256; test: Antitumour activity against Walker 256 adenocarcinoma cells implanted in Wistar rat assessed as increase in animal survival rate by measuring T/C ratio at 5 mg/kg, ip qd for 3 days administered on day 3,4,5 after tumor cell transplantation; assay type: functional; details: time 3 day
[24] = system: W256; test: Antitumour activity against Walker 256 adenocarcinoma cells implanted in Wistar rat assessed as increase in animal survival rate by measuring T/C ratio at 20 mg/kg, ip qd for 3 days administered on day 3,4,5 after tumor cell transplantation; assay type: functional; details: time 3 day
[25] = system: W256; test: Antitumour activity against Walker 256 adenocarcinoma cells implanted in Wistar rat assessed as increase in animal survival rate by measuring T/C ratio at 4 mg/kg, ip qd for 3 days administered on day 3,4,5 after tumor cell transplantation; assay type: functional; details: time 3 day
[26] = system: HT-29; test: Antitumour activity against human HT-29 cells xenografted in Crl:Nu-Foxnl nu mouse assessed as inhibition of tumour growth at total effective dose of 24 mg/kg, iv measured on day 21; assay type: functional; details: HT-29, iv, 504 h, time 21 day, read-out: TGI
[27] = system: HT-29; test: Antitumour activity against human HT-29 cells xenografted in Crl:Nu-Foxnl nu mouse assessed as inhibition of tumour growth at total effective dose of 24 mg/kg, ip measured on day 21; assay type: functional; details: HT-29, ip, 504 h, time 21 day, read-out: TGI
[28] = Stabilization of ds 5'-FAM-d(TATAGCTATA-HEG-TATAGCTATA)-TAMRA-3' (unknown origin) assessed as change in melting temperature at 10 microM measured after 15 mins by FRET assay; details: Homo sapiens
[29] = system: NCI-H460; test: Antitumour activity against human NCI-H460 cells xenografted in Crl:Nu-Foxnl nu mouse assessed as inhibition of tumour growth at total effective dose of 30 mg/kg, iv measured on day 14; assay type: functional; details: 336 h, time 14 day, read-out: TGI
[30] = system: DU-145; test: Antitumour activity against human DU-145 cells xenografted in Crl:Nu-Foxnl nu mouse assessed as inhibition of tumour growth at total effective dose of 40 mg/kg, ip measured on day 35; assay type: functional; details: DU-145, ip, 840 h, time 35 day, read-out: TGI
[31] = system: PANC-1; test: Antitumour activity against human PANC-1 cells xenografted in Crl:Nu-Foxnl nu mouse assessed as inhibition of tumour growth at total effective dose of 16 mg/kg, iv measured on day 37; assay type: functional; details: PANC-1, iv, 888 h, time 37 day, read-out: TGI
[32] = system: UMUC3; test: Antitumour activity against human UMUC3 cells xenografted in Crl:Nu-Foxnl nu mouse assessed as inhibition of tumour growth at total effective dose of 14 mg/kg, iv measured on day 23; assay type: functional; details: 552 h, time 23 day, read-out: TGI
[33] = system: W256; test: Antitumour activity against Walker 256 adenocarcinoma cells implanted in Wistar rat assessed as increase in animal survival rate by measuring T/C ratio at 1.25 mg/kg, ip qd for 3 days administered on day 3,4,5 after tumor cell transplantation; assay type: functional; details: time 3 day

Structure (SMILES)	IC50 [1]	IC50 [3]	IC50 [4]	IC50 [5]	IC50 [6]	IC50 [7]	IC50 [11]	IC50 [15]	further results
Nc1ccn([C@@H]2O[C@H](CO)[C@@H](O)C2(F)F)c(=O)n1 [GEMCITABINE]	0.022 µM	–	–	–	–	–	–	–	–
Cc1ccc([N+](=O)[O-])c2c(NCCCNCCCNc3ccc([N+](=O)[O-])c4[nH]c5ccc(O)cc5c(=O)c34)c3ccccc3nc12	–	0.088 µM	0.123 µM	0.078 µM	0.073 µM	0.129 µM	–	–	T/C [2]: 1500%
CN(CCCNc1c2ccccc2nc2cccc([N+](=O)[O-])c12)CCCNc1ccc([N+](=O)[O-])c2[nH]c3ccc(O)cc3c(=O)c12	0.032 µM	0.015 µM	0.053 µM	0.043 µM	0.014 µM	0.022 µM	0.02 µM	0.024 µM	ΔTm [8]: 34 °C; IC50 [9]: 0.014 µM; inhibition in vivo at 5 mg/kg [10]: 32%; ΔTm [12]: 29.7 °C; inhibition in vivo at 6 mg/kg [13]: 60%; IC50 [14]: 0.052 µM; inhibition in vivo at 32 mg/kg [16]: 30%; ΔTm [17]: 26.3 °C; T/C [18]: 350%; IC50 [19]: 0.135 µM; IC50 [20]: 0.074 µM; inhibition in vivo at 24 mg/kg [21]: 52%
Cc1ccc([N+](=O)[O-])c2c(NCCNCCNc3ccc(C)c4[nH]c5ccccc5c(=O)c34)c3ccccc3nc12	–	–	0.25 µM	0.599 µM	–	0.413 µM	–	–	T/C [22]: 250%
Cc1ccc([N+](=O)[O-])c2c(NCCCNCCNCCCNc3ccc([N+](=O)[O-])c4[nH]c5ccccc5c(=O)c34)c3ccccc3nc12	0.142 µM	–	–	0.088 µM	–	–	–	0.11 µM	T/C [23]: 350%
Cc1ccc([N+](=O)[O-])c2c(NCCCN(C)CCCNc3ccc([N+](=O)[O-])c4[nH]c5ccc(O)cc5c(=O)c34)c3ccccc3nc12	–	–	0.377 µM	0.073 µM	0.046 µM	0.2 µM	–	–	T/C [24]: 400%
O=c1c2cc(O)ccc2[nH]c2c([N+](=O)[O-])ccc(NCCCN3CCN(CCCNc4c5ccccc5nc5cccc([N+](=O)[O-])c45)CC3)c12	0.043 µM	0.011 µM	0.117 µM	0.02 µM	0.02 µM	0.038 µM	0.012 µM	0.012 µM	T/C [25]: 300%; ΔTm [8]: 16 °C; IC50 [9]: 0.033 µM; inhibition in vivo at 24 mg/kg [26]: 39%; inhibition in vivo at 24 mg/kg [27]: 25%; ΔTm [12]: 26.6 °C; ΔTm [28]: 3.3 °C; IC50 [14]: 0.031 µM; ΔTm [17]: 32.6 °C; IC50 [19]: 0.21 µM; IC50 [20]: 0.061 µM; inhibition in vivo at 30 mg/kg [29]: 24%
Cc1ccc([N+](=O)[O-])c2c(NCCCN(C)CCCNc3ccc(C)c4[nH]c5ccccc5c(=O)c34)c3ccccc3nc12	–	0.12 µM	0.197 µM	0.19 µM	0.071 µM	0.123 µM	–	–	T/C [23]: 1300%
NC(CCN1CCN(CCCNc2ccc3nnn4c5ccc(O)cc5c(=O)c2c34)CC1)c1ccc2nc3ccccc3cc2c1[N+](=O)[O-] (configuration not stated)	0.036 µM	–	–	0.017 µM	–	–	0.029 µM	0.017 µM	ΔTm [8]: 27.5 °C; ΔTm [12]: 36.5 °C; ΔTm [28]: 5.9 °C; ΔTm [17]: 37.5 °C; IC50 [19]: 0.137 µM
Cc1ccc(NCCNCCNc2c3ccccc3nc3cccc([N+](=O)[O-])c23)c2c(=O)c3ccccc3[nH]c12	0.212 µM	–	0.25 µM	0.243 µM	–	0.138 µM	0.137 µM	–	T/C [25]: 350%; inhibition in vivo at 40 mg/kg [30]: 61%; inhibition in vivo at 16 mg/kg [31]: 75%; ΔTm [8]: 37.7 °C; ΔTm [12]: 28.1 °C; ΔTm [17]: 28.5 °C; inhibition in vivo at 14 mg/kg [32]: 46%
CCc1c2c(nc3ccc(OC(=O)N4CCC(N5CCCCC5)CC4)cc13)-c1cc3c(c(=O)n1C2)COC(=O)[C@]3(O)CC [IRINOTECAN]	–	9.7 µM	–	–	–	9.5 µM	–	–	–
Cc1ccc(NCCCNCCCNc2c3ccccc3nc3cccc([N+](=O)[O-])c23)c2c(=O)c3ccccc3[nH]c12	0.377 µM	–	–	0.184 µM	–	–	–	0.28 µM	T/C [33]: 300%; IC50 [20]: 0.228 µM
O=c1c2ccccc2[nH]c2c([N+](=O)[O-])ccc(NCCCNCCNCCCNc3c4ccccc4nc4cccc([N+](=O)[O-])c34)c12	0.06 µM	–	–	0.055 µM	–	–	–	0.046 µM	T/C [33]: 250%
Cc1ccc(NCCCN(C)CCCNc2c3ccccc3nc3cccc([N+](=O)[O-])c23)c2c(=O)c3ccccc3[nH]c12	0.04 µM	–	–	0.025 µM	–	0.049 µM	0.039 µM	–	–
Cc1ccc([N+](=O)[O-])c2c(NCCCN3CCN(CCCNc4ccc([N+](=O)[O-])c5[nH]c6ccc(O)cc6c(=O)c45)CC3)c3ccccc3nc12	–	–	4.03 µM	0.061 µM	0.047 µM	0.233 µM	–	–	T/C [24]: 250%
Cc1ccc([N+](=O)[O-])c2c(NCCNc3ccc(C)c4[nH]c5ccccc5c(=O)c34)c3ccccc3nc12	–	1.27 µM	–	0.417 µM	0.37 µM	1.18 µM	–	–	T/C [23]: 750%
